Earlier results, collected in article PMC7876056, “Population Pharmacokinetic Analysis of Yimitasvir in Chinese Healthy Volunteers and Patients With Chronic Hepatitis C Virus Infection” (Frontiers in Pharmacology, 2021).
Like-named read-outs stand apart in the source and are kept apart here.

Details: cited from earlier work; for Time-varying ALT as covariate on PK: healthy volunteers and HCV patients
[1] = ref U.S. Food and Drug Administration, 2016
[2] = ref U.S. Food and Drug Administration, 2014

COC[C@H]1C[C@@H](c2ncc(-c3ccc4c(c3)COc3cc5c(ccc6nc([C@@H]7CC[C@H](C)N7C(=O)[C@@H](NC(=O)OC)C(C)C)[nH]c65)cc3-4)[nH]2)N(C(=O)[C@H](NC(=O)OC)c2ccccc2)C1 [velpatasvir]
Time-varying ALT as covariate on PK [1]: not identified as a significant covariate | Effect of co-medication of sofosbuvir on PK profile (ref Brieva et al., 2017): not affected by co-medication of sofosbuvir | Gender effect on CL/F [1]: lower CL/F values in females

COC(=O)N[C@H](C(=O)N1CCC[C@H]1c1nc(-c2ccc(-c3ccc(-c4c[nH]c([C@@H]5CCCN5C(=O)[C@@H](NC(=O)OC)C(C)C)n4)cc3)cc2)c[nH]1)C(C)C [daclatasvir]
Time-varying ALT as covariate on CL/F (patient population only, ref Chan et al., 2017): significant covariate | Effect of time-varying ALT on AUCss (ref Chan et al., 2017): small | Gender effect on CL/F (ref Chan et al., 2017): lower CL/F values in females

COC(=O)N[C@H](C(=O)N1CC2(CC2)C[C@H]1c1ncc(-c2ccc3c(c2)C(F)(F)c2cc(-c4ccc5nc([C@@H]6[C@H]7CC[C@H](C7)N6C(=O)[C@@H](NC(=O)OC)C(C)C)[nH]c5c4)ccc2-3)[nH]1)C(C)C [ledipasvir]
Time-varying ALT as covariate on PK [2]: not identified as a significant covariate | Effect of co-medication of sofosbuvir on PK profile (ref German et al., 2016): not affected by co-medication of sofosbuvir | Gender effect on CL/F [2]: lower CL/F values in females
